Measured values published in US20230000865A1, “PHARMACEUTICAL COMPOSITION FOR THE TREATMENT OF PULMONARY VASCULAR DISEASE AND/OR CARDIAC DYSFUNCTION IN FONTAN-PALLIATED PATIENTS” (ACTELION PHARMACEUTICALS LTD, priority 2019, published 2023).

Legend:
[1] = preoperative Fontan candidates with mild pulmonary hypertension; cited from earlier work
BCRP transporters = target: T1, BCRP transporters (Homo sapiens, UniProt Q9UNQ0); assay: Drug-drug interaction, pharmacokinetics of rosuvastatin; format: in vivo; details: for Drug-Drug Interaction observed: in vivo
T1 construct: from tissue; host or cells: in vivo: gut, liver canalicular membrane, kidney
T1 sequence (Q9UNQ0 1-655): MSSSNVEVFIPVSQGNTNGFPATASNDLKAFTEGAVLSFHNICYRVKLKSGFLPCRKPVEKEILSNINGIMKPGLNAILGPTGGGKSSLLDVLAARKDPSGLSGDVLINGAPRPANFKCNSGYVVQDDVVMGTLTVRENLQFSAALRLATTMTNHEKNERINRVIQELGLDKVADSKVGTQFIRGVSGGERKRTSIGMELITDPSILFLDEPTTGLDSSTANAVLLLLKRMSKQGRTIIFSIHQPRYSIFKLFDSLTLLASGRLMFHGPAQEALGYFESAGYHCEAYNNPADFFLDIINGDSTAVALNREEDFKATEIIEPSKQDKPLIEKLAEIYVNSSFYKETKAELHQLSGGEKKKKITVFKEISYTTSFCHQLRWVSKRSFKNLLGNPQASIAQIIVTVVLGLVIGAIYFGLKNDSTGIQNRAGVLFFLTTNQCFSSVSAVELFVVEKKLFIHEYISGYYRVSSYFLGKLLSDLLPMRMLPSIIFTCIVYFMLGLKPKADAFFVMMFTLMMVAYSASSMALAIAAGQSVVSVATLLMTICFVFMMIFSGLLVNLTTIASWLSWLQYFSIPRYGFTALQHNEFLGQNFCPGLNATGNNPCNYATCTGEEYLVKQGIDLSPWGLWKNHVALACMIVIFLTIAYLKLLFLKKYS
Description: BCRP is an efflux pump located in the gut, liver canalicular membrane, and kidney, and is exposed to intracellular drug concentrations in the liver and the kidney.

human PXR = target: T2, human PXR (Homo sapiens, UniProt O75469); assay: Activation of human PXR; format: cell-based
T2 sequence (O75469 1-434): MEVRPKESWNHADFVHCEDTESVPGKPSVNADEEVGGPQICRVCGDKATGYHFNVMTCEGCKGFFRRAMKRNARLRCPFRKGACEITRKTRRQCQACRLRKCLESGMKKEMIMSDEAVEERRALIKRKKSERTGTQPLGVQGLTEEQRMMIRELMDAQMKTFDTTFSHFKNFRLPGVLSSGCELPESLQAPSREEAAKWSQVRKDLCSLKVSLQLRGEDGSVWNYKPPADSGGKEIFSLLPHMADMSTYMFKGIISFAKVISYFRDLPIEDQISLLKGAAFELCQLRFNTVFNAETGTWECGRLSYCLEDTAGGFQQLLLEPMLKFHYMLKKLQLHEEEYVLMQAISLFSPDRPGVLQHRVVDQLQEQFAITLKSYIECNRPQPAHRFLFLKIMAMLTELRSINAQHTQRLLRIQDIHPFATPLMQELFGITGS
Description: In human hepatocytes, both compounds elicited concentration-dependent increases in CYP3A4 mRNA and enzyme activity.

[2] = cited from earlier work
ET receptors = details: cited from earlier work
[3] = patients with PAH; cited from earlier work
[4] = long-term treatment, patient with plastic bronchitis following Fontan; cited from earlier work
[5] = early postoperative phase; cited from earlier work
[6] = Example 1: dose-response (Emax) analysis of hemoglobin change, pooled Phase I studies in healthy volunteers; format: in vivo, human
Description: Hemoglobin measurements were pooled from 3 Phase I clinical studies in healthy volunteers: • Study AC-055-102: Investigation of the PK, PD, safety and tolerability of macitentan in male subjects (the study protocol is described in the following publication: Sidharta et al., Safety, tolerability, pharmacokinetics, and pharmacodynamics of macitentan, an endothelin receptor antagonist, in an ascending multiple-dose study in healthy subjects. J. Clin. Pharmacol. (2013), 53(11), 1131-1138) • Study AC-055-116: Investigation of the PK, PD, safety and tolerability of macitentan in male Japanese subjects (the study protocol is described in the following publication: Yokoyama et al., Tolerability, Safety, Pharmacokinetics, and Pharmacodynamics of Macitentan, a New Endothelin Receptor Antagonist, in Healthy Japanese Male Subjects. Rinsho yakuri/Japanese Journal of Clinical Pharmacology and Therapeutics (2016), 47, 143-150) • Study AC-055-117: Investigation of the PK, PD, safety and tolerability of macitentan in male Korean subjects (the study protocol is described in the following publication: Ahn et al., Pharmacokinetic-pharmacodynamic relationships of macitentan, a new endothelin receptor antagonist, after multiple dosing in healthy Korean subjects, Am. […]
Hemoglobin concentrations measured in the morning of Day 11 of macitentan treatment and at baseline on Day −1 were used in the analysis. […]

[7] = Example 2: Phase 1 safety study of 75 mg qd macitentan in healthy male subjects, with and without up-titration; format: in vivo, human
Method: This is a single-sequence, open-label, single-center, Phase 1 study in healthy male subjects. The study assessed the effect of 75 mg qd administration of macitentan. The study includes a screening phase of 21 days before the first macitentan administration, followed by an open-label treatment phase. Randomization was not used and subjects received the same treatment.
29 subjects were enrolled.
Administration of 75 mg qd macitentan started on Day 1. Macitentan was administered every day in the morning between 8:00 and 11:00 with 240 mL of noncarbonated water. One 75-mg macitentan film-coated tablet was thus administered as multiple qd oral doses under fed conditions.
Subjects were planned to take macitentan 75 mg for 15 days. However the study was interrupted on the morning of day 8, i.e. when subjects had received 7 doses of macitentan 75 mg.
Macitentan was administered in an up-titration regimen in the morning between 8:00 and 11:00 with 240 mL of noncarbonated water. One macitentan film-coated tablet (10 mg, 37.5 mg or 75 mg) was administered as multiple qd oral doses under fed conditions on Days 1-9 and Days 11-12, and under fasted conditions on Days 10 and 13. The up-titration regimen consists of 2 qd doses of 10 mg macitentan and 3 qd doses of 37.5 mg macitentan followed by 8 qd doses of 75 mg macitentan. On Days −4, −3, 10 and 13 (i.e., the days when dosing occurred under fasted conditions), no fluid intake apart from the water taken at the time of macitentan administration was allowed from 1 hour before until 1 hour after administration of macitentan.
All reported AEs with onset during the treatment phase were included in the analysis. The effects on cardiovascular variables were evaluated and the following variables were collected: PR (ms), QRS (ms), QT (ms), QTcB (ms), QTcF (ms), heart rate (bpm), and RR. The normal range for vital signs is defined as follows: • Systolic blood pressure: 100-140 mmHg • Diastolic blood pressure: 60-90 mmHg • Pulse rate: 45-90 bpm • Respiratory rate: 8-20 per minute • Body temperature: 35.0° C. to 37.5° C.
An AE is any untoward medical occurrence, i.e., any unfavorable and unintended sign (including an abnormal finding), symptom, or disease temporally associated with the use of macitentan. A treatment-emergent AE is any occurrence that is new in onset or aggravated in severity from the baseline condition. The following are used to assess all AEs: • Related: There is a reasonable causal relationship between macitentan administration and the AE. • Not Related: There is not a reasonable causal relationship between macitentan administration and the AE.
An assessment of AE severity grade was made using the following general categorical descriptors: • Mild: Awareness of symptoms that are easily tolerated, causing minimal discomfort and not interfering with everyday activities. • Moderate: Sufficient discomfort is present to cause interference with normal activity. • Severe: Extreme distress, causing significant impairment of functioning or incapacitation. Prevents normal everyday activities.

[8] = design: key to Frequency observed with macitentan 10 mg: Photophobia: Very common: very common (≥1/10); Common: common (≥1/100 to <1/10); Uncommon: uncommon (≥1/1,000 to <1/100); rare (≥1/10,000 to <1/1,000); very rare (<1/10,000); Not known: not known (cannot be estimated from the available data); details: cited from earlier work
[9] = 75 mg qd without up-titration, 6 subjects
[10] = 75 mg qd, healthy male subjects
[11] = up-titration 10/37.5/75 mg qd, 6 subjects

CC#CCC(C)[C@H](O)/C=C/[C@@H]1[C@H]2c3cccc(CCCC(=O)O)c3O[C@H]2C[C@H]1O (mixture of isomers) [beraprost]
effect on mean pulmonary artery pressure (PAP) and PVR [1]: reduces

NS(=O)(=O)Nc1ncnc(OCCOc2ncc(Br)cn2)c1-c1ccc(Br)cc1 [ACT-132577]
Drug-Drug Interaction observed (BCRP transporters): No Drug-Drug Interaction | EC50 (human PXR): 7.2 to 8.7 µM | half-life ([2]; in humans): approximately 48 hours | plasma concentrations compared with macitentan ([2]; in vivo): higher plasma concentrations than macitentan | time of peak plasma concentration after the first dose ([2]; metabolite after macitentan administration): about 30 hours | affinity for the ET receptors compared with parent compound (ET receptors): lower affinity

COc1ccccc1Oc1c(NS(=O)(=O)c2ccc(C(C)(C)C)cc2)nc(-c2ncccn2)nc1OCCO [bosentan]
exercise capacity, functional class, health-related quality of life and haemodynamic parameters (including PVR and PAP) [3]: improve | symptoms, aortic oxygen saturation, functional class, exercise capacity, Borg dyspnoea index, mean PAP, pulmonary blood flow and PVR [4]: improved

CCCCC[C@H](O)/C=C/[C@@H]1[C@H]2C/C(=C/CCCC(=O)O)O[C@H]2C[C@H]1O [epoprostenol]
rebound effect after inhaled nitric oxide (NO) cessation [5]: prevent the rebound effect

CCCNS(=O)(=O)Nc1ncnc(OCCOc2ncc(Br)cn2)c1-c1ccc(Br)cc1 [macitentan, propylsulfamic acid [5-(4-bromo-phenyl)-6-[2-(5-bromo-pyrimidin-2-yloxy)-ethoxy]-pyrimidin-4-yl]-amide]
Drug-Drug Interaction observed (BCRP transporters): No Drug-Drug Interaction | effect on the pharmacokinetics of 1 mg rosuvastatin (BCRP transporters; macitentan 10 mg per day o.d.): has not shown any effect | EC50 (human PXR): 1.1 to 1.2 µM | maximum effect on hemoglobin decrease (Emax) ([6]; Day 11 vs baseline Day -1, nonlinear regression): around 1.23 g/dL | dose at which the effect on hemoglobin decrease plateaus ([6]; FIG. 1): 10 mg | N with Flushing/feeling of warmth/redness of face and/or hands (No titration) [7, 9]: 4 | N with Headache (No titration) [7, 9]: 6 | N with Photophobia (No titration) [7, 9]: 3 | N with Sinusitis/rhinitis/nasal congestion (No titration) [7, 9]: 5 | Severity of AEs (No titration): Photophobia [7, 9]: All mild | Severity of AEs (No titration): Sinusitis/rhinitis/nasal congestion [7, 9]: All mild | overall severity of AEs [7, 10]: mainly mild | reduction in hemoglobin [7, 10]: ≤ 2 g/dL | study day from which AEs were reported [7, 10]: ≥ 2 days | vital signs, ECG and lab parameters [7, 10]: no clinically significant changes | resolution of AEs ([7]; Four days after stopping macitentan): most of the AEs resolved | Duration of AE (With titration): Sinusitis/rhinitis/nasal congestion [7, 11]: < 24 h | N with Flushing/feeling of warmth/redness of face and/or hands (With titration) [7, 11]: 0 | N with Headache (With titration) [7, 11]: 6 | N with Photophobia (With titration) [7, 11]: 0 | N with Sinusitis/rhinitis/nasal congestion (With titration) [7, 11]: 1 | Severity of AEs (With titration): Sinusitis/rhinitis/nasal congestion [7, 11]: Mild, less than | completion of treatment ([7]; up-titration regimen cohort): All subjects completed treatment | tolerability of 75 mg macitentan with up-titration regimen ([7]; up-titration vs no up-titration): improved tolerability | steady state is reached ([2]; in humans, day of administration): by the third day | half-life ([2]; in humans): about 16 hours | absorption into the plasma ([2]; in vivo): absorbed slowly | Frequency observed with macitentan 10 mg: Flushing/feeling of warmth/redness of face and/or hands [8]: Uncommon (uncommon (≥1/1,000 to <1/100)) | Frequency observed with macitentan 10 mg: Headache [8]: Very common (very common (≥1/10)) | Frequency observed with macitentan 10 mg: Photophobia [8]: Not known | Frequency observed with macitentan 10 mg: Sinusitis/rhinitis/nasal congestion [8]: Common (common (≥1/100 to <1/10))
